“And” between values parts separate entries of the source, which are not always exact repeats. Equal entries are not always repeated.
Legend:
U251N23 cells [1] = test: Cell-cycle distribution by FACScan; type: cell-based, human; conditions: U251N23, VP16 1 × 10^−6 M
Experimental: (§1) Cell-cycle distribution was determined by flow cytometry as described previously (Huang et al., Int. J. Cancer 77:880-886 (1998)). Briefly, cells were seeded in 100 mm plates (5×10^5 per plate), incubated for 24 hours, and then treated with VP16 or vehicle. At days 1 and 2 of treatment, cells were collected, fixed in 70% ethanol and stained with propidium iodine. The DNA content of cells was then analyzed in a fluorescence cell sorter (FACSCalibur, Becton Dickinson, Mountain View, Calif.).
(§2) The possibility was assessed by treatment of the cells with VP16 for 24 and 48 hours, and cell-cycle distribution was then determined by FACScan. […] Although there was a slight decrease of S phase in cx43-transfected cells compared with control transfected cells at 24 hours after VP16 treatment, it was not statistically significant.

U251cx43-217 cells [2] = test: Cell-cycle distribution by FACScan; type: cell-based, human; conditions: U251cx43-217, VP16 1 × 10^−6 M
Experimental: as §1, §2

U251cx43-216 cells [3] = test: Cell-cycle distribution by FACScan; type: cell-based, human; conditions: U251cx43-216, VP16 1 × 10^−6 M
Experimental: as §1, §2

U251N23 cells [4] = test: Clonogenicity (cell survival) assay; type: cell-based, human
Experimental: (§3) The surviving cell fraction was determined by clonogenicity assay as previously described (Huang et al., J. Cell Biol. 133:211-220 (1996)). Cells were seeded at a density of 500 cells per 60 mm plate and incubated overnight and then treated with drugs; culture was then continued for 3 weeks. Clones were fixed in 4% formaldehyde-PBS and stained with Giemsa solution. Colonies containing more than 50 cells were counted and the fraction of surviving cells was calculated. The results represented the average of three separate experiments.
(§4) Values at OD 570 reflect the relative number of viable cells.

U251cx43-216 cells [5] = test: Clonogenicity (cell survival) assay; type: cell-based, human
Experimental: as §3, §4

U251N23 cells [6] = test: MTT cell viability assay; type: cell-based; conditions: Homo sapiens, 144 h, day 6 after treatment, U251N23 (control-transfected)
Experimental: (§5) In vitro viability was determined by the 3-(4,5-dimethylthiazol-2yl)-2,5-diphenyltetrazolium bromide (MTT) colorimetric assay as described in (Huang et al., Cancer Res. 55:5054-5062 (1995)). Cells (1×10^3) were plated in triplicate in 96 well microplates overnight and treated with 5 different concentrations of VP16, Tax and DOX, respectively. […] Absorbance values at 570 nm were plotted as a measure of the relative number of cells. […] Both methods gave the identical results.
as §4

U251cx43-217 cells [7] = test: MTT cell viability assay; type: cell-based; conditions: Homo sapiens, 144 h, day 6 after treatment, U251cx43-217 (cx43-transfected)
Experimental: as §5, §4

U251N2 cells = test: MTT cell viability assay; type: cell-based; conditions: Homo sapiens, 144 h, day 6 after treatment, U251N2 (control-transfected)
Experimental: as §5, §4

T98Gcx43-220 cells = test: MTT cell viability assay; type: cell-based; conditions: Homo sapiens, 144 h, day 6 after treatment, T98Gcx43-220 (cx43-transfected)
Experimental: as §5, §4

T98GN28 cells = test: MTT cell viability assay; type: cell-based; conditions: Homo sapiens, 144 h, day 6 after treatment, T98GN28 (control-transfected)
Experimental: as §5, §4

U251N23 cells [8] = test: Apoptosis, Hoechst dye stain; type: cell-based, human; conditions: U251N23, 1 μM VP16, D4
Experimental: The assay was performed as we previously described (Huang et al., Cell Death Differ. 5:96-106 (1998)). Briefly, cells were fixed in Carnoy's solution (methanol:glacial […]; 3:1) and stained with 5 μg/ml of bisbenzimide trihydrochloride (Hoechst 33258) for 20 min. The morphology of nuclei was then observed with a Zeiss (Thornwood, N.Y.) photomicroscope II. At least 500 nuclei in each cell line were counted. Experiments were repeated four times.
(§6) It was next determined whether the enhanced sensitivity to chemotherapeutic agents induced by over-expression of cx43 was associated with the increase of drug-induced apoptosis. Cells collected at various time points post-treatment with 1 μM VP16 were used for apoptosis assays. First, nuclear condensation, chromatin fragmentation and formation of apoptotic bodies were detected by Hoechst 33258 dye staining upon treatment with VP16. […] The results were further confirmed by both 1) TUNEL assay, which detects double- as well as single-stranded DNA breaks during apoptosis by labeling the free 3′-OH termini in an enzymatic reaction (terminal deoxynucleotidyl transferase), and annexin V assay, which detects the exposed phosphotidylserine during apoptosis.

U251N23 cells [9] = test: Apoptosis, annexin V assay; type: cell-based, human
Experimental: (§7) Cells, treated or not VP16, were analyzed with the TACS Annexin V-FITC kit (Trevigen, Gaithersburg, Md.) according to manufacturer's instructions. Apoptosis was detected by the appearance of patches of fluorescence on the cell surface.
as §6

U251cx43-216 cells [10] = test: Apoptosis, annexin V assay; type: cell-based, human
Experimental: as §7, §6

U251cx43-216 cells [11] = test: MTT cell viability assay
U251N23 cells [12] = test: Apoptosis, TUNEL assay; type: cell-based, human; conditions: U251N23, 1 μM VP16, D2
Experimental: (§8) Cells (1 to 3×10^5) were seeded onto glass slides in 8-well plates overnight, and then treated with VP16 for 48 hours. Apoptotic cells were then analyzed with a TUNEL-based in situ cell death detection kit (Boehringer-Mannheim, Mannheim, Germany). Fluorescent cells were observed under a fluorescence microscope and viewed as positive cells. The experiment was repeated twice.
as §6

U251cx43-216 cells [13] = test: Apoptosis, TUNEL assay; type: cell-based, human; conditions: U251cx43-216, 1 μM VP16, D2
Experimental: as §8, §6

IC50 (U251N23 cells [6]): 860 nM | IC50 (U251cx43-217 cells [7]): 330 nM | IC50 (U251N2 cells): 800 nM | IC50 (U251cx43-216 cells [11]; Homo sapiens, 144 h): 390 nM
Compound: COc1cc([C@@H]2c3cc4c(cc3[C@@H](O[C@@H]3O[C@@H]5CO[C@@H](C)O[C@H]5[C@H](O)[C@H]3O)[C@H]3COC(=O)[C@H]23)OCO4)cc(OC)c1O [VP16, Etoposide]
Cell cycle distribution, G1 phase (U251N23 cells [1]; day 1): 7.37% | Cell cycle distribution, G2 phase (U251N23 cells [1]; day 1): 81.49% | Cell cycle distribution, S phase (U251N23 cells [1]; day 1): 11.14% | Cell cycle distribution, G1 phase (U251N23 cells [1]; day 2): 5.78% | Cell cycle distribution, G2 phase (U251N23 cells [1]; day 2): 94.22% | Cell cycle distribution, S phase (U251N23 cells [1]; day 2): 0% | Cell cycle distribution, G1 phase (U251cx43-217 cells [2]; day 1): 12.05% | Cell cycle distribution, G2 phase (U251cx43-217 cells [2]; day 1): 77.84% | Cell cycle distribution, S phase (U251cx43-217 cells [2]; day 1): 10.11% | Cell cycle distribution, G1 phase (U251cx43-217 cells [2]; day 2): 11.39% | Cell cycle distribution, G2 phase (U251cx43-217 cells [2]; day 2): 88.61% | Cell cycle distribution, S phase (U251cx43-217 cells [2]; day 2): 0% | Cell cycle distribution, G1 phase (U251cx43-216 cells [3]; day 1): 10.95% | Cell cycle distribution, G2 phase (U251cx43-216 cells [3]; day 1): 80.57% | Cell cycle distribution, S phase (U251cx43-216 cells [3]; day 1): 8.48% | Cell cycle distribution, G1 phase (U251cx43-216 cells [3]; day 2): 8.44% | Cell cycle distribution, G2 phase (U251cx43-216 cells [3]; day 2): 90.81% | Cell cycle distribution, S phase (U251cx43-216 cells [3]; day 2): 0.75% | Colony formation (colonies counted) (U251N23 cells [4]; U251N23, 1 × 10^−7, 3 weeks): 36 +/− 1 | Colony formation (colonies counted) (U251N23 cells [4]; U251N23, 4 × 10^−6, 3 weeks): 9 +/− 1 | Colony formation (colonies counted) (U251N23 cells [4]; U251N23, 4 × 10^−7, 3 weeks): 129 +/− 16 | Colony formation (colonies counted) (U251cx43-216 cells [5]; U251cx43-216, 1 × 10^−7, 3 weeks): 3 +/− 1 | Colony formation (colonies counted) (U251cx43-216 cells [5]; U251cx43-216, 4 × 10^−6, 3 weeks): 2 +/− 1 | Colony formation (colonies counted) (U251cx43-216 cells [5]; U251cx43-216, 4 × 10^−7, 3 weeks): 44 +/− 5 | IC50 (T98Gcx43-220 cells): 760 nM | IC50 (T98GN28 cells): 1340 nM | Percentage of apoptotic cells, Hoechst stain (U251N23 cells [8]): 8.8% and 8.8 +/− 2.4% | Percentage of apoptotic cells, annexin stain (U251N23 cells [9]; U251N23, 1 μM VP16, D2): 5.5 +/− 0.7% | Percentage of apoptotic cells, annexin stain (U251N23 cells [9]; U251N23, 1 μM VP16, D4): 11.5 +/− 2.1% | Percentage of apoptotic cells, annexin stain (U251cx43-216 cells [10]; U251cx43-216, 1 μM VP16, D2): 24.5 +/− 0.7% | Percentage of apoptotic cells, annexin stain (U251cx43-216 cells [10]; U251cx43-216, 1 μM VP16, D4): 42.0 +/− 5.6% | level of toxicity (measured as IC50) in U251cx43-216 relative to U251N23 (U251cx43-216 cells [11]; MTT assay, higher in cx43-transfected cells): about 2 fold | Percentage of apoptotic cells, TUNNEL assay (U251N23 cells [12]): 1.6 +/− 2.3% | Percentage of apoptotic cells, TUNNEL assay (U251cx43-216 cells [13]): 13.3 +/− 4.5%

From US20120045501A1, “CONNEXIN ENHANCES CHEMOTHERAPY-INCLUDED APOPTOSIS IN HUMAN CANCER CELLS INHIBITING TUMOR CELL PROLIFERATION” (Northwest Hospital, priority 2001, published 2012)
